{"source": "paper PMC4448987", "about": "“A neuroligin-1-derived peptide stimulates phosphorylation of the NMDA receptor NR1 subunit and rescues MK-801-induced decrease in long-term potentiation and memory impairment” (Pharmacology Research & Perspectives, 2015)", "key": {"hippocampal neurons": {"test_system": "hippocampal neurons", "conditions": "NX-1β expression-dependent, in contrast to the peptide without the B insert; ref Gjorlund et al. [2012]; cited from earlier work", "description": "(§1) We recently investigated the functional role of the NL1 B insert using a peptide, termed neurolide-1, that encompasses the NL1-binding site for NX1, including the B insert."}, "NX-1β": {"test_system": "NX-1β", "conditions": "ref Gjorlund et al. [2012]; cited from earlier work", "description": "as §1"}, "[1]": {"conditions": "in vivo intra-hippocampal treatment; ref van der Kooij et al. [2014]; cited from earlier work", "description": "as §1"}, "[2]": {"test_system": "NMDA receptor NR1 subunit (serine 897)", "assay": "NMDA receptor phosphorylation assay (immunoblot, anti-phospho-Ser897-NR1) in cultured cortical neurons", "assay_type": "cell-based, Wistar rat", "conditions": "cultured rat cortical neurons, 0.1, 0.3, 1 and 2.7 μmol/L for 5 min, eight independent experiments", "procedure": "Cortical neurons were obtained from Wistar rat embryos at embryonic day 19, of both sexes, basically as previously described (Maar et al. [1997]) (see Data S1). Briefly, animals were rendered unconscious by concussive stunning and euthanized by cervical dislocation. Hereafter, the embryonic brains were collected and cortical neurons were dissociated and seeded in 60-mm tissue culture dishes coated with 1 μg/mL of poly-D-lysine (Sigma-Aldrich, St. Louis, MO) and grown for 8 days before treatment. Then, the cultures were stimulated with either the NL1 ectodomain (0.2, 0.6, 1.8, and 5.4 nmol/L) or neurolide-1 (0.1, 0.3, 1, and 2.7 μmol/L) for 5 min. The cells were lysed, and proteins were resolved by sodium dodecyl sulfate-polyacrylamide gel electrophoresis followed by immunoblotting using rabbit anti-Ser897-NR1 antibody (1:500; Millipore, Billerica, MA), mouse anti-β-tubulin antibody (1:50,000; Sigma-Aldrich), and IRDye secondary antibodies (Odyssey, Lincoln, NE). The bands were visualized using the Odyssey CLX Infrared Imaging System (Odyssey). Four independent experiments with stimulation by NL1 ectodomain and eight independent experiments with stimulation by neurolide-1 were performed."}, "hippocampal slices (LTP)": {"test_system": "hippocampal slices (LTP)", "assay": "LTP in acute hippocampal slices, peptide added directly to aCSF", "design": "species or system mice", "conditions": "neurolide-1 alone, 1 µmol/L added to running artificial CSF during baseline before LTP induction", "procedure": "Measurements were made in oxygenated aCSF at room temperature (1.1 mL/min). Schaeffer collaterals were stimulated with a bipolar concentric electrode (TM33CCNON; World Precision Instruments, Sarasota, FL). The field potential in the stratum radiatum of the CA1 area of the hippocampus was recorded with an extracellular glass microelectrode (4–6 MΩ, filled with aCSF), positioned at least 500 μm away from the stimulation electrode. The stimulus intensity was set 0.03 mA above the threshold. After a 30-min baseline was obtained with stimulation at 0.05 Hz, long-term potentiation (LTP) was induced by stimulating the Schaeffer collaterals at 100 Hz for 1 s four times at 20 s intervals. A new baseline was established over the following 30 min. Potentiation was estimated by comparing the rising slope of the field excitatory postsynaptic potential (fEPSP) before and 25–30 min after high-frequency stimulation.\nSupplementary file prp20003-e00126-sd2.tif: Figure S1. Effect of neurolide-1 on LTP in acute hippocampal slices. Neurolide-1 at a concentration of 1 µmol/L was added directly to the running artificial CSF during baseline measurement before the induction of LTP.\nSupplementary Figure S1. Effect of neurolide-1 on LTP in acute hippocampal slices. Neurolide-1 at a concentration of 1 µM was added directly to the running artificial CSF during baseline measurement before the induction of LTP."}, "male Wistar rats": {"test_system": "male Wistar rats", "assay": "Spatial memory in the Morris water maze", "assay_type": "in vivo", "conditions": "rat", "procedure": "The Morris water-maze test (Morris [1984]) was performed as previously described (Kraev et al. [2011]) with slight modifications (see Data S1). Male Wistar rats (Charles River), weighing 150–200 g on the day of arrival were used. To investigate for potential effects on memory consolidation, neurolide-1 was injected immediately after the training sessions on day 1 and 2 (n = 12 in each group). To test for potential effects on memory acquisition neurolide-1 was injected 2 h before start of training on training day 1 and 2 (n = 12 in each group). Finally, to test for potential effects on MK-801-induced learning deficiencies neurolide-1 was injected 2 h before start of training on day 2 and 3 in animals, which had received an injection with MK-801 30 min earlier (n = 6–9 in each group). In a slightly modified version of the MK-801 experiments a group of animals received a neurolide-1 injection immediately after the training sessions on day 1, and then a neurolide-1 injection 2 h before start of training on day 2, preceded by an MK-801 injection 30 min earlier (n = 12 in each group). Terminally, rats were rapidly and humanely rendered unconscious by concussive stunning and euthanized by cervical dislocation.\nThe Morris water maze test (Morris, 1984) was conducted in a 160 cm wide circular black tank placed in a dimly lit room and filled with 21°C water up to 20 cm from the top. The tank was surrounded by visual orientation marks, and a 10 cm wide escape platform was placed 1.5 cm below the water level for it to be unseen. A video camera was placed above the tank and connected to a computerized tracking system (Ethovision 3.1, Noldus IT, Wageningen, Holland). The tank was divided into four equal-size quadrants that also served as starting positions. The latency to locate the platform, time spent swimming, and swimming speed were scored within the defined zones (i.e., total area, quadrants, and a platform circle that was 60 cm in diameter with the center in the original platform location). Prior to training, the rats were handled 2 min daily for 5 days to minimize stress during the experiments.\nReference memory training consisted of three consecutive trials daily for 3 days. Each trial began with placing the animal in the water facing the wall of the pool. The starting position differed for each trial but was identical for all animals. In each trial, the animal was allowed 90 s to locate the platform. […] After each trial, the rats were allowed 20 s of orientation time on the platform and then removed from the pool for 20 s before the next trial was initiated. After the last trial each day, the animals were dried and returned to their home cages.\nTo test for effects on long-term memory, the animals were tested in a probe trial 24 h after the last reference memory training. In the probe trial, the platform was removed, and the animals began from a position in a quadrant adjacent to the original platform quadrant. The rats were allowed to swim for 60 s, after which the trial was stopped."}}}
{"sequence": "SEGNRWSNSTKGLFQRA [neurolide-1]", "values": [{"measurement": "neurite outgrowth in hippocampal neurons", "setting": "hippocampal neurons", "result": "induce neurite outgrowth"}, {"measurement": "binding to NX-1β", "setting": "NX-1β", "result": "bind NX-1β"}, {"measurement": "sociability and aggression", "setting": "[1]", "result": "did not demonstrate such effects"}, {"measurement": "NR1 phosphorylation on serine 897", "setting": "[2]", "result": "induced NR1 phosphorylation proportionally to the increase in peptide concentration"}, {"measurement": "effect on LTP, direct treatment of hippocampal slices", "setting": "hippocampal slices (LTP)", "result": "did not affect LTP"}, {"measurement": "learning, velocity and memory retention in probe test (memory acquisition)", "setting": "male Wistar rats; 10 mg/kg s.c. 2 h before training sessions on days 1 and 2, n = 12", "result": "No effect"}, {"measurement": "learning on day 2 or 3 and memory retention in probe test (memory consolidation)", "setting": "male Wistar rats; 10 mg/kg s.c. immediately after last training session on days 1 and 2, probe test 24 h after last training, n = 12", "result": "No effect"}, {"measurement": "velocity in the water maze", "setting": "male Wistar rats; MK-801 0.1 mg/kg s.c. with or without neurolide-1 10 mg/kg s.c. (long-term regimen), n = 12", "result": "Neither treatments affected velocity"}, {"measurement": "effect on MK-801-impaired learning and memory retention, short-term treatment", "setting": "male Wistar rats; neurolide-1 10 mg/kg s.c. 30 min after MK-801 0.1 mg/kg and 2 h before first trial on days 2 and 3, n = 6-9", "result": "did not reduce the effect of MK-801"}, {"measurement": "effect on MK-801-impaired learning (escape latency)", "setting": "male Wistar rats; neurolide-1 10 mg/kg s.c. after training on day 1 and on day 2, 30 min after MK-801 0.1 mg/kg and 2 h before first training session, n = 12", "result": "attenuated the effect of the NMDA receptor inhibitor on learning"}, {"measurement": "effect on MK-801-impaired memory in the probe test 24 h after last training session", "setting": "male Wistar rats; neurolide-1 10 mg/kg s.c. after training on day 1 and on day 2, 30 min after MK-801 0.1 mg/kg, n = 12", "result": "completely abrogated the effect of MK-801"}]}
